Reference: patent US12194053B2, “Compositions and methods for reducing oxidative damage” (University of Louisville Research Foundation, Inc., priority 2012, dated 2025)
Read-outs that look alike come from different tables or passages of the source.

Test system: porcine lenses
Excerpt: To analyze the efficacy and the biocompatibility of the compositions produced as described above, an ex viva analysis was undertaken in which the compositions were applied to eye lenses ex vivo. In these experiments, harvested porcine lenses were utilized.
Upon establishing the culturing conditions for the lenses, hyperoxic conditions were created and used to test the efficacy of the gelled compositions in protecting against oxidative damage and cataract formation. Briefly, in these experiments, two methods were used to test the efficacy of the compositions in preventing oxidative lens damage. Initially, oxidative damage with superoxide radicals generated by the addition of hydrogen peroxide into the lens culture medium was employed.

## OO [H2O2, hydrogen peroxide]
0.3 mM H2O2
  day lens clarity started to be affected: 9 days
  lens area opacified by day 14: 40%
0.4 mM H2O2
  day lens opacity started: 5 days
  lens area covered by opacity by day 14: 60%
0.5 mM H2O2
  day lens opacity started: 3 days
  lens opacity on day 14: 90%
1 mM H2O2
  extent of cataract by day 5: total cataract
1 mM H2O2 in lens culture medium
  time lens opacity first appeared: 24 h
H2O2 concentrations below 0.3 mM, up to 28 days of ex vivo culturing
  lens opacification: did not appear to cause any lens opacification
